In patent US7196199B2, “Phenoxypropylamine compounds” (Mitsubishi Pharma Corporation, priority 1999, dated 2007):
Where a name gives a salt, the structure may show the parent alone. Read-outs that look alike come from different tables or passages of the source.

How the values were obtained:
5-HT1A receptor [1] = biological target: T1, 5-HT1A receptor (Rattus norvegicus, UniProt P19327); experiment: 5-HT1A receptor binding test
T1 sequence (P19327 1-422): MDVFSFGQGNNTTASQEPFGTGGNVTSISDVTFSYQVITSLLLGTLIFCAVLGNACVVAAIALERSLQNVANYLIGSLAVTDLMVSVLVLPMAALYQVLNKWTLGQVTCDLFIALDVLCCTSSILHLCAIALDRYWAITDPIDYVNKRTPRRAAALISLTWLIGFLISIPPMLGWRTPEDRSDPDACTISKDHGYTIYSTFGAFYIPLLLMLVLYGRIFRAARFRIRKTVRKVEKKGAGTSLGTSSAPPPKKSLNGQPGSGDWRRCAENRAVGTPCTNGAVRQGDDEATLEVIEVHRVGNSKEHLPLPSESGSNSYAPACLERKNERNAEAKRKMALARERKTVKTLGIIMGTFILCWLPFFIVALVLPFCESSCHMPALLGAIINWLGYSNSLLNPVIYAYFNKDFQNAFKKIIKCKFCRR
Description: The experiment was conducted according to the method of M. D. Hall et al (J. Neurochem. 44, 1685–1696 (1985)).
Cryopreserved rat hippocampus was homogenized in a 20-fold wet weight amount of 50 mM Tris-HCl buffer (pH 7.4), and the homogenate was centrifuged at 500×g for 10 min. The supernatant was centrifuged at 40000×g for 10 min and the sediment was incubated at 37° C. for 10 min, which was followed by centrifugation at 40000×g for 10 min. To the sediment was added a 20-fold amount of 50 mM Tris-HCl buffer (pH 7.4) and the mixture was homogenized, which was followed by centrifugation again at 40000×g for 10 min. 50 mM Tris-HCl buffer (pH 7.4, 100-fold volume) containing 1 mM MnCl2 was added to the sediment and the mixture was homogenized, which was used as a membrane solution. To a 96 well plate were successively added a test solution ([…]), (^3H)-8-OH-DPAT ((±)-8-hydroxy-2-(DL-N-propylamino)tetraline, Sigma, lot No. 57H4131) solution (final concentration 2 nM, […]) and the membrane solution (0.45 ml) preincubated at 37° C., and incubated at 37° C. for 12 min. After completion, the reaction mixture was filtered through a GF/B glass filter and the filter was washed 5 times with 50 mM Tris-HCl buffer (pH 7.4). The radioactivity left on the filter was measured with a Top Count. For total binding measurement, 0.005N hydrochloric acid ([…]) was used, and for the measurement of nonspecific binding, a test solution containing WAY-100635 (final concentration […]) instead of the test substance was used. The total binding and nonspecific binding were measured in quadruplicate, and the test substance was measured in duplicate.
The IC50 value was calculated by two-point interpolation and Ki value was calculated according to the following equation using Kd value obtained from each measurement. Ki=IC50/(1+C/Kd)
IC50: concentration of 50% binding inhibition
C: concentration of ligand

5-HT transporter = biological target: T2, 5-HT transporter (Rattus norvegicus, UniProt P31652); experiment: 5-HT transporter binding test
T2 construct: Rat brain cortex was homogenized using Polytron; from tissue; host or cells: rat brain cortex membranes
Description: Rat brain cortex was homogenized using Polytron in ice-cooled 50 mmol/L Tris-HCl buffer (pH 7.4). After centrifugation at 1000×g and 4° C. for 10 min, the supernatant was transferred to a different centrifugation tube. This was centrifuged at 40000×g and 4° C. for 20 min, and 50 mmol/L Tris-HCl buffer (pH 7.4) was added to the sediment to give a suspension. This was incubated at 37° C. for 10 min, centrifuged at 40000×g and 4° C. for 20 min, and suspended in 50 mmol/L Tris-HCl buffer (pH 7.4) (diluted 100-fold of brain wet weight) containing 120 mmol/L NaCl and 5 mmol/L KCl, which was used as a membrane solution. For binding inhibition test, it was reacted with (^3H) paroxetine prepared to the final concentration of 0.2 nmol/L in a plastic test tube at 25° C. for 90 min. For total binding, a solvent was used and for nonspecific binding, fluvoxamine having a final concentration of 10 μmol/L was used.
Using a cell harvester, the reaction mixture was filtered through a GF/B glass filter treated with 0.1% polyethyleneimine to stop the reaction and washed 3 times with 3 mL of ice-cooled 50 mmol/L Tris-HCl buffer (pH 7.4). The radioactivity was measured using a β plate.

5-HT1A receptor [2] = biological target: T1, 5-HT1A receptor; experiment: Electrophysical evaluation of agonist/antagonist of 5-HT1A receptor (nystatin perforated patch clamp, dorsal raphe nuclei cell); type: cell-based; parameters: The isolated nerve cell (dorsal raphe nuclei cell) was subjected to nystatin perforated patch clamp method; endogenous in cells; host or cells: acutely dissociated dorsal raphe nuclei neurons of 2-week-old male Wistar rat; conditions: 10^−7 mol/L, isolated rat dorsal raphe nuclei cell; for antagonistic action (% of control) of the test substance on the 8-OH-DPAT induced inward K+ current: 8-OH-DPAT 10^−7 mol/L
Description: The experiment followed the method of Katayama et al (Brain Res.; 745, 283–292, 1997).
The brain of 2-week-old male Wistar rat was extracted, and a brain thin section (thickness 350 μm) containing dorsal raphe nuclei was prepared using a microslicer. The brain thin section was treated in Ringer's solution containing pronase (0.4 mg/mL) and protease type X (0.25 mg/mL) at 30° C. for 25 min and 15 min, respectively, and the dorsal raphe nuclei region was micropunched out. The brain thin section punched out was subjected to pipetting in a culture dish filled with the Ringer's solution to isolate the nerve cell. The isolated nerve cell (dorsal raphe nuclei cell) was subjected to nystatin perforated patch clamp method (Akaike & Harata, Jpn. J. Physiol.; 44, 433–437, 1994) and the inward K^+ current induced by the test substance and the like was measured under membrane voltage-clamp condition (VH=−60 mV). For the measurement of the inward K^+ current via the 5-HT1A receptor, an extracellular solution and a patch pipette solution having the following compositions were used simultaneously. • extracellular solution (mmol/L): NaCl, 135; KCl, 20; MgCl2, 1; CaCl2, 2; D-glucose, 10; HEPES, 10; tetrodotoxin, 3×10^−4; LaCl3, 10 • patch pipette solution (mmol/L): KCl, 150; HEPES, 10
To the above-mentioned patch pipette solution was added nystatin. (Sigma, Lot No. 33H0762) to the final concentration of 75 μg/mL before the electric measurement.
The current response was measured with a voltage clamp amplifier (List Medical, L/M-EPC7), and the obtained results were recorded on a chart of a recticorder (Nihondenki Sanei, RECTIHORIZ-8K), digitized by a PCM recording device (NF electric Instruments, RP-882) and videotaped by a VCR (Panasonic, NV-G40).
The administration of the test substance and the like followed a Y-tube method (Murase et al., Brain Res.; 525, 84–91, 1990).
First, 8-OH-DPAT (10^−7 mol/L) was administered to the isolated nerve cell (dorsal raphe nuclei cell) obtained above, and the level of the inward K^+ current response was measured.
8-OH-DPAT was washed out for 2 min from the above-mentioned cells and the test substance and pindolol (reference substance which is an antagonist) were administered for 1 min, and the level of the inward K^+ current response by each of them was measured. From immediately after administration of the test substance or the reference substance, a mixture of 8-OH-DPAT ([…]) and the test substance or reference substance was administered, and the level of the induced inward K^+ current response was measured. The measurement results and the level of the current response in the same cell by 8-OH-DPAT alone were compared, based on which the antagonistic action on the 8-OH-DPAT induction current was considered. Every current response was expressed upon standardizing according to the following calculation equation based on the level of the 8-OH-DPAT (10^−7 mol/L) induction current in the same cell.
The inward K^+ current response inducing action (5-HT1A agonistic action) by the test substance alone was determined from the following equation. inward K^+ current response inducing action (%) by test substance alone=(ITD÷IDPAT)×100 • ITD: level of inward K^+ current response by test substance alone • IDPAT: level of 8-OH-DPAT (10^−7 mol/L) induced inward K^+ current in the same cell
The suppressive effect (5-HT1A antagonistic action) on the 8-OH-DPAT induced inward K^+ current by the test substance was determined according to the following equation. antagonistic action of test substance on 8-OH-DPAT induced inward K^+ current (% of control)=(IMIX÷IDPAT)×100
IMIX: level of 8-OH-DPAT (10^−7 mol/L) induced inward K^+ current in the presence of test substance

[3] = rat hippocampus membrane, (3H)-8-OH-DPAT 2 nM, read-out: 5-HT1A receptor binding Ki value
[4] = rat brain cortex membrane, (3H) paroxetine 0.2 nmol/L, read-out: 5-HT transporter binding Ki value

T2 sequence (P31652 whole entry): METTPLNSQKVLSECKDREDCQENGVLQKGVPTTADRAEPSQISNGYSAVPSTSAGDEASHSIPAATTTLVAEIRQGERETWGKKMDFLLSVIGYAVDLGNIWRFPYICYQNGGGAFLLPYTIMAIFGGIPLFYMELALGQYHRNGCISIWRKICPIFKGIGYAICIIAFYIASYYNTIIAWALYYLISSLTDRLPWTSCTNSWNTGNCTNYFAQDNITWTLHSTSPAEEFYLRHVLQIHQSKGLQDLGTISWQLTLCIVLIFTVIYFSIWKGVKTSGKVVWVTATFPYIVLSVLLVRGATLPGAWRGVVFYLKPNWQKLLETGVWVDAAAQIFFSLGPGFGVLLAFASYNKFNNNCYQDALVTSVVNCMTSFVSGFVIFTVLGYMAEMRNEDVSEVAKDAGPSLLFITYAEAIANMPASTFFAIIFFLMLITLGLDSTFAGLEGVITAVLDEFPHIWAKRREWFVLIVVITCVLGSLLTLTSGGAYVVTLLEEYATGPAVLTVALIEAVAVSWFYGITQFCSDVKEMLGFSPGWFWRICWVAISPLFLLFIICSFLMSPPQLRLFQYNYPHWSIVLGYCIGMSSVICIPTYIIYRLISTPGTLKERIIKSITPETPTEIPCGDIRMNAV

Work on `COc1ccc(C2CCN(C[C@H](O)COc3cccc4oc(-c5nnc(C)o5)cc34)CC2)cc1Cl.Cl` yielded a melting point of 218 to 220 °C.
Work on `Cc1nnc(-c2cc3c(OC[C@@H](O)CN4CCC(c5ccc(Cl)c(C)c5)CC4)cccc3o2)o1.Cl` yielded a melting point of 184 to 186 °C.
Molecule `Cc1nnc(-c2cc3c(OC[C@@H](O)CN4CCC(c5ccc(Cl)c(F)c5)CC4)cccc3o2)o1.Cl` has a melting point of 139 to 141 °C.
In the case of `Cc1nnc(-c2cc3c(OC[C@@H](O)CN4CC=C(c5ccc6ccoc6c5)CC4)cccc3o2)o1.Cl`, the melting point is reported as 135 to 138 °C.
`C=C(C)c1nnc(-c2cc3c(OC[C@@H](O)CN4CCC(c5ccc6c(c5)OCO6)CC4)cccc3o2)o1.Cl` gave a melting point of 128 to 130 °C.
Molecule `Cc1nnc(-c2cc3c(OC[C@@H](O)CN4CCC(c5ccc(C)c(Cl)c5)CC4)cccc3o2)o1` (as salt: hydrochloride) has a melting point of 188 to 190 °C.
For `Cc1nnc(-c2cc3c(OC[C@@H](O)CN4CCC(c5ccc6c(c5)CCCS6)CC4)cccc3o2)o1` (as salt: hydrochloride), the melting point was 223 to 225 °C.
In the case of `Cc1nnc(-c2cc3c(OC[C@@H](O)CN4CCC(c5ccc(Cl)c(C(F)(F)F)c5)CC4)cccc3o2)o1` (as salt: hydrochloride) [Example 234, (S)-1-(4-(4-chloro-3-trifluoromethylphenyl)piperidino)-3-(2-(5-methyl-1,3,4-oxadiazol-2-yl)benzo(b)furan-4-yloxy)-2-propanol hydrochloride], the melting point is reported as 222 to 224 °C.
For `CON(C)C(=O)c1cc2c(OC[C@@H](O)CN3CCC(c4ccc5ccccc5c4)CC3)cccc2o1` [Example 6, (S)-4-(2-hydroxy-3-(4-(naphthalen-2-yl)piperidino)propyloxy)-N-methoxy-N-methylbenzo(b)furan-2-carboxamide], the Ki (5-HT1A receptor [1]; [3]) was 2300 pM, the Ki (5-HT transporter; [4]) was 1100 pM and the “antagonistic action (% of control) of the test substance on the 8-OH-DPAT induced inward K+ current” value (5-HT1A receptor [2]) was “almost nil”. For the same molecule, the “agonist/antagonist character at 5-HT1A receptor” value (“agonist/antagonist character” for short) (5-HT1A receptor [2]) was “silent antagonists” and the “inward K+ current inducing action (%) by the test substance alone” value (shortened to “inward K+ current inducing action (%)”) (5-HT1A receptor [2]) was “almost nil”.
With `Cc1nnc(-c2cc3c(OC[C@@H](O)CN4CCC(c5ccc(Cl)c(Cl)c5)CC4)cccc3o2)o1` [Example 88, (S)-1-(4-(3,4-dichlorophenyl)piperidino)-3-(2-(5-methyl-1,3,4-oxadiazol-2-yl)benzo(b)furan-4-yloxy)-2-propanol hydrochloride 1/4 hydrate] the Ki (5-HT1A receptor [1]; [3]) was 750 pM, the Ki (5-HT transporter; [4]) was 320 pM and the “antagonistic action (% of control) of the test substance on the 8-OH-DPAT induced inward K+ current” value (5-HT1A receptor [2]) was “almost nil”. The “agonist/antagonist character” value (5-HT1A receptor [2]) was “silent antagonists” and the “inward K+ current inducing action (%)” value (5-HT1A receptor [2]) was “almost nil”.
With `OCc1nnc(-c2cc3c(OC[C@@H](O)CN4CCC(c5ccc(Cl)c(Cl)c5)CC4)cccc3o2)o1` [Example 136, (S)-3-(4-(3,4-dichlorophenyl)piperidino)-1-(2-(5-hydroxymethyl-1,3,4-oxadiazol-2-yl)benzo(b)furan-4-yloxy)-2-propanol] the Ki (5-HT1A receptor [1]; [3]) was 370 pM, the Ki (5-HT transporter; [4]) was 180 pM and the “antagonistic action (% of control) of the test substance on the 8-OH-DPAT induced inward K+ current” value (5-HT1A receptor [2]) was “almost nil”. The “agonist/antagonist character” value (5-HT1A receptor [2]) was “silent antagonists” and the “inward K+ current inducing action (%)” value (5-HT1A receptor [2]) was “almost nil”.
In the case of `CC(C)c1nnc(-c2cc3c(OC[C@@H](O)CN4CCC(c5ccc6c(c5)OCO6)CC4)cccc3o2)o1` [Example 138, (S)-1-(2-(5-(1-methylethyl)-1,3,4-oxadiazol-2-yl)benzo(b)furan-4-yloxy)-3-(4-(3,4-methylenedioxyphenyl)piperidino)-2-propanol hydrochloride], the Ki (5-HT1A receptor [1]; [3]) is reported as 680 pM, the Ki (5-HT transporter; [4]) is reported as 1600 pM and the “antagonistic action (% of control) of the test substance on the 8-OH-DPAT induced inward K+ current” value (5-HT1A receptor [2]) is reported as “almost nil”. For the same molecule, the “agonist/antagonist character” value (5-HT1A receptor [2]) was “silent antagonists” and the “inward K+ current inducing action (%)” value (5-HT1A receptor [2]) was “almost nil”.
Work on `Cc1nnc(-c2cc3c(OC[C@@H](O)CN4CC=C(c5ccc6occc6c5)CC4)cccc3o2)o1` [Example 238, (S)-1-(4-(benzo(b)furan-5-yl)-5,6-dihydro-2H-pyridin-1-yl)-3-(2-(5-methyl-1,3,4-oxadiazol-2-yl)benzo(b)furan-4-yloxy)-2-propanol] yielded a melting point of 168 to 170 °C.
With `O[C@H](COc1cccc2[nH]ccc12)CN1CCC(O)(c2ccc3ccccc3c2)CC1` [compound for reference, (S)-1-(4-indolyloxy)-3-[4-hydroxy-4-(2-naphthyl)piperidino]propan-2-ol, reference compound] the Ki (5-HT1A receptor [1]) was 160 pM, the Ki (5-HT transporter) was 55000 pM and the “agonist/antagonist character” value (5-HT1A receptor [2]) was “partial agonist”.
